In data set [1] the test system is Hepatitis C virus. As to the kind of experiment: Antiviral activity against HCV genotype 1b Con1 infected in human Huh7 cells assessed as inhibition of viral replication in presence of 50% NHS by HCV bicistronic replicon assay. The class given is functional, organism-based, Hepacivirus hominis. The note with it: Con1, Huh-7.
The nature of data set [2]: Inhibition of HCV genotype 2a JFH NS3/4A protease expressed in Escherichia coli incubated for 30 mins by time-resolved fluorescence assay. Also noted: species or system Hepatitis C virus JFH-1.
Data set [3] deals with Genome polyprotein (Hepacivirus C, UniProt K7XJL6, A156T). Description: Inhibition of HCV genotype 1b BK NS3/4A protease A156T mutant expressed in Escherichia coli incubated for 30 mins by time-resolved fluorescence assay. Also noted: species or system Hepatitis C virus (isolate BK).
A short description of data set [4]: Inhibition of HCV genotype 1b BK NS3/4A protease expressed in Escherichia coli incubated for 30 mins by time-resolved fluorescence assay. More on the design: species or system Hepatitis C virus (isolate BK).
The target in data set [5] is Hepatitis C virus serine protease, NS3/NS4A (Hepatitis C virus, UniProt A3EZI9+D2K2A8, R155K). Description: Inhibition of HCV genotype 1b BK NS3/4A protease R155K mutant expressed in Escherichia coli incubated for 30 mins by time-resolved fluorescence assay. Also noted: species or system Hepatitis C virus (isolate BK).
For data set [6], the system named is Hepatitis C virus. Description: Antiviral activity against HCV genotype 1b Con1 infected in human Huh7 cells assessed as inhibition of viral replication in presence of 10% FBS by HCV bicistronic replicon assay. It is filed as functional, organism-based, Hepacivirus hominis. The note with it: Con1, Huh-7.
A short description of data set [7]: Drug level in Sprague-Dawley rat liver at 5 mg/kg, po measured 4 hrs post dose by LC/MS method. The class given is ADME, organism-based. More on the design: dose 5 mg/kg, route oral. The note with it: read-out: Drug uptake.
The nature of data set [8]: Inhibition of HCV subtype 3a NS3/4A protease incubated for 30 mins by time-resolved fluorescence assay. Also noted: species or system Hepatitis C virus subtype 3a.
Data set [9] deals with Genome polyprotein (Hepacivirus C, UniProt K7XJL6, A156V). Description: Inhibition of HCV genotype 1b BK NS3/4A protease A156V mutant expressed in Escherichia coli incubated for 30 mins by time-resolved fluorescence assay. More on the design: species or system Hepatitis C virus (isolate BK).
Data set [10] addresses Genome polyprotein (Hepacivirus C, UniProt K7XJL6, D168V). As to the kind of experiment: Inhibition of HCV genotype 1b BK NS3/4A protease D168V mutant expressed in Escherichia coli incubated for 30 mins by time-resolved fluorescence assay. More on the design: species or system Hepatitis C virus (isolate BK).

SMILES strings stand for the structures.

Data on seven compounds can be found in ChEMBL document CHEMBL2202979, “Development of macrocyclic inhibitors of HCV NS3/4A protease with cyclic constrained P2-P4 linkers” (Bioorg Med Chem Lett, 2012).

For orientation: IC50 means the concentration needed to halve the response being measured. In general, Ki refers to a measure of affinity in units of concentration, obtained from inhibition or displacement. A higher Ki goes with lower affinity.

On to `C=C[C@@H]1C[C@]1(NC(=O)[C@@H]1C[C@@H]2CN1C(=O)[C@H](C1CCCC1)NC(=O)OCC(C)(C)C[C@@H]1C[C@@H]1c1cc3c(cc(OCC)nc3cc1OC)O2)C(=O)NS(=O)(=O)C1CC1`, for which the IC50 in the data set on Hepatitis C virus [1] was 11 nM; with Hepatitis C virus [6], 2.3 nM. For the same compound, the inhibition constant Ki in data set [2] amounted to 0.14 nM; at Genome polyprotein [3] it was 2.8 nM; in data set [4] it was 0.016 nM; in data set [5] it was 0.2 nM; in data set [8] it was 1 nM; on Genome polyprotein [9], 14 nM. Moreover, the inhibition constant (Ki) at Genome polyprotein [10] is 1.8 nM. Also, the concentration at 4 h in data set [7] was 27 µM.
Regarding `C=C[C@@H]1C[C@]1(NC(=O)[C@@H]1C[C@@H]2CN1C(=O)[C@H](C1CCCCC1)NC(=O)O[C@@H]1CCC[C@H]1C/C=C/c1cc3c(cc(OCC)nc3cc1OC)O2)C(=O)NS(=O)(=O)C1CC1`, in the data set on Hepatitis C virus [1], the IC50 was 55 nM. Besides, the Ki was 2 nM at Genome polyprotein [3]; less than 0.05 nM in data set [4]; 1.3 nM in data set [5]; 3.1 nM in data set [8]; 40 nM on Genome polyprotein [9]. Also, the concentration at 4 h in data set [7] turned out to be 37.1 µM.
Turning to `C=C[C@@H]1C[C@]1(NC(=O)[C@@H]1C[C@@H]2CN1C(=O)[C@H](C1CCCC1)NC(=O)N1CC[C@@H](C1)OCCC/C=C/c1cc3ccc(OC)cc3nc1O2)C(=O)NS(=O)(=O)C1CC1`, the results for the IC50 in the data set with Hepatitis C virus [1] and with Hepatitis C virus [6] were 32 nM and 3.1 nM, respectively. The inhibition constant (Ki) in data set [2] is 0.17 nM; on Genome polyprotein [3], 2.9 nM; in data set [4] it was 0.016 nM; in data set [5], 0.1 nM; in data set [8], 3 nM; at Genome polyprotein [9], 37 nM. For the same compound, the affinity on Genome polyprotein [10] corresponds to a Ki of 1.2 nM. The concentration at 4 h in [7] came to 8.6 µM.
In the case of `C=C[C@@H]1C[C@]1(NC(=O)[C@@H]1C[C@@H]2CN1C(=O)[C@H](C1CCCCC1)NC(=O)N1CCC(CC1)OCCC/C=C/c1cc3c(cc(OCC)nc3cc1OC)O2)C(=O)NS(=O)(=O)C1CC1`, in the data set on Hepatitis C virus [1], the IC50 turned out to be 32 nM. Further, the Ki is 0.7 nM on Genome polyprotein [3]; less than 0.05 nM in [4]; 0.2 nM in data set [5]; 2.1 nM in data set [8]; 18 nM on Genome polyprotein [9]. Further, in [7], the concentration at 4 h came out at 11 µM.
On to `C=C[C@@H]1C[C@]1(NC(=O)[C@@H]1C[C@@H]2CN1C(=O)[C@H](C1CCCC1)NC(=O)OCC(C)(C)CCCc1cc3c(cc(OCC)nc3cc1OC)O2)C(=O)NS(=O)(=O)C1CC1`, for which the inhibition constant (Ki) in data set [2] was found to be 0.14 nM; in data set [4] it was 0.016 nM; in data set [5] it was 1.2 nM; in [8], 2.1 nM; at Genome polyprotein [10], 2.2 nM.
On to `C=C[C@@H]1C[C@]1(NC(=O)[C@@H]1C[C@@H]2CN1C(=O)[C@H](C1CCCCC1)NC(=O)N1CC(C1)OCCC/C=C/c1cc3c(cc(OCC)nc3cc1OC)O2)C(=O)NS(=O)(=O)C1CC1`, for which the IC50 with Hepatitis C virus [1] is 64 nM. For the same compound, the Ki is 0.2 nM on Genome polyprotein [3]; less than 0.05 nM in [4]; 0.2 nM in data set [5]; 0.9 nM in data set [8]; 6.1 nM at Genome polyprotein [9]. Moreover, the concentration at 4 h in data set [7] stood at 4 µM.
On to `C=C[C@@H]1C[C@]1(NC(=O)[C@@H]1C[C@@H]2CN1C(=O)[C@H](C1CCCC1)NC(=O)O[C@@H]1CCC[C@H]1C/C=C/c1cc3c(cc(OCC)nc3cc1OC)O2)C(=O)NS(=O)(=O)C1CC1`, for which the concentration for half-maximal inhibition (IC50) with Hepatitis C virus [1] was determined as 17 nM. For the same compound, the inhibitory constant (Ki) on Genome polyprotein [3] was 0.8 nM; in data set [4], less than 0.05 nM; in data set [5], 0.5 nM; in [8], 4.6 nM; on Genome polyprotein [9], 15 nM. In data set [7], the concentration at 4 h was determined as 10.2 µM.
